Activity calls are given as the source filed them. The rule behind the calls is not given here.
How the values were obtained:
RAW264.7 [1] = assay: Activation of NF-kappaB signalling pathway in mouse RAW264.7 cells assessed as suppression of LPS-induced IkappaBalpha phosphorylation pretreated with compound for 2 hrs followed by LPS-stimulation for 30 mins by Western blot analysis; type: cell-based; details: filed as activator, dose 0.2-5 µM, time 2.5 hrs
RAW264.7 [2] = assay: Antiinflammatory activity in mouse RAW264.7 cells assessed as inhibition of LPS-induced IL-6 production at 10 uM preincubated for 2 hrs followed by LPS-stimulation for 24 hrs by ELISA; type: functional, cell-based; details: time 26.0 hrs
RAW264.7 [3] = assay: Antiinflammatory activity in mouse RAW264.7 cells assessed as inhibition of LPS-induced IL-1beta production at 10 uM preincubated for 2 hrs followed by LPS-stimulation for 24 hrs by ELISA; type: functional, cell-based; details: time 26.0 hrs
RAW264.7 [4] = assay: Inhibition of LPS-induced NO production in mouse RAW264.7 cells at 5 uM preincubated with compound for 2 hrs followed by LPS stimulation for 24 hrs by Griess reagent based assay relative to control; type: functional; details: time 26 hrs
RAW264.7 [5] = assay: Inhibition of LPS-induced NO production in mouse RAW264.7 cells preincubated with compound for 2 hrs followed by LPS stimulation for 24 hrs by Griess reagent based assay; type: functional, cell-based
RAW264.7 [6] = assay: Cytotoxicity against mouse RAW264.7 cells assessed as effect on cell viability at 5 uM incubated for 24 hrs by alamar blue reagent based fluorescence assay; type: toxicity; details: raw264.7, 24 h
RAW264.7 [7] = assay: Antiinflammatory activity in mouse RAW264.7 cells assessed as inhibition of LPS-induced IL-6 production preincubated for 2 hrs followed by LPS-stimulation for 24 hrs by ELISA; type: functional, cell-based; details: dose 0.2-5 µM, time 26.0 hrs, DDE = dose-dependent effect
RAW264.7 [8] = assay: Antiinflammatory activity in mouse RAW264.7 cells assessed as inhibition of LPS-induced IL-1beta production preincubated for 2 hrs followed by LPS-stimulation for 24 hrs by ELISA; type: functional, cell-based; details: dose 0.2-5 µM, time 26.0 hrs, DDE = dose-dependent effect
RAW264.7 [9] = assay: Antiinflammatory activity in mouse RAW264.7 cells assessed as decrease in LPS-induced IL-6 mRNA expression at 0.2 to 5 uM preincubated for 2 hrs followed by LPS-stimulation for 24 hrs by qRT-PCR analysis; type: functional, cell-based; details: dose 0.2-5 µM, time 26.0 hrs
RAW264.7 [10] = assay: Antiinflammatory activity in mouse RAW264.7 cells assessed as decrease in LPS-induced IL-1beta mRNA expression at 0.2 to 5 uM preincubated for 2 hrs followed by LPS-stimulation for 24 hrs by qRT-PCR analysis; type: functional, cell-based; details: dose 0.2-5 µM, time 26.0 hrs
RAW264.7 [11] = assay: Antiinflammatory activity in mouse RAW264.7 cells assessed as inhibition of LPS-induced iNOS mRNA expression preincubated for 2 hrs followed by LPS stimulation for 24 hrs by qRT-PCR analysis; type: functional, cell-based; details: dose 0.2-5 µM, time 26.0 hrs, DDE = dose-dependent effect
RAW264.7 [12] = assay: Activation of NF-kappaB signalling pathway in mouse RAW264.7 cells assessed as suppression of LPS-induced IkappaBalpha degradation pretreated with compound for 2 hrs followed by LPS-stimulation for 30 mins by Western blot analysis; type: cell-based; details: filed as activator, dose 0.2-5 µM, time 2.5 hrs, DDE = dose-dependent effect
RAW264.7 [13] = assay: Activation of NF-kappaB signalling pathway in mouse RAW264.7 cells assessed as decrease in LPS-induced AKT phosphorylation at 0.2 to 5 uM pretreated with compound for 2 hrs followed by LPS-stimulation for 30 mins by Western blot analysis; type: cell-based; details: filed as activator, dose 0.2-5 µM, time 2.5 hrs
[14] = molecular target: T1, Signal transducer and activator of transcription 1 (Mus musculus) (UniProt P42225); assay: Inhibition of LPS-induced STAT1 phosphorylation in mouse RAW264.7 cells pretreated with compound for 2 hrs followed by LPS-stimulation and measured after 30 mins by immunoblot analysis; type: cell-based; details: dose 0.2-5 µM, time 2.5 hrs, DDE = dose-dependent effect
T1 sequence (whole entry): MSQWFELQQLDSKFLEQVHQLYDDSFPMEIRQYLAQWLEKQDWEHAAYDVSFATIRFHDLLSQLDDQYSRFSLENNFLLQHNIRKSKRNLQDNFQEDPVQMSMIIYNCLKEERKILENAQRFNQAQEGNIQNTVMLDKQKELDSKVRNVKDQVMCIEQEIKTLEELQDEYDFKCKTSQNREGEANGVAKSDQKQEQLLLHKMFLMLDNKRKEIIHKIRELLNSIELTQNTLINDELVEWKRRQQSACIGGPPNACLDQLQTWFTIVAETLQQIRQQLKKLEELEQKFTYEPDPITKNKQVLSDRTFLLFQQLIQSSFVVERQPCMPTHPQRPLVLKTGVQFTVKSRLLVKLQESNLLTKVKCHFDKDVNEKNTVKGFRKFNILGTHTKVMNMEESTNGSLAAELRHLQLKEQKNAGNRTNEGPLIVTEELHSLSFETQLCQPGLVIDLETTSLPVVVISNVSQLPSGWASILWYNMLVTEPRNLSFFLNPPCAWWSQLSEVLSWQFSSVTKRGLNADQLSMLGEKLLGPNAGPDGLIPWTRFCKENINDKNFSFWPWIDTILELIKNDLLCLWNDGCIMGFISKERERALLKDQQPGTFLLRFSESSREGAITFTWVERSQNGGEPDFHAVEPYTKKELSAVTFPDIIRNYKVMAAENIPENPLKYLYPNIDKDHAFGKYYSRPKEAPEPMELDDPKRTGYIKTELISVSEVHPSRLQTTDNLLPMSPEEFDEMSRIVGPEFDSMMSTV

RAW264.7 [15] = assay: Antiinflammatory activity in LPS-induced mouse RAW264.7 cells assessed as enhancement of JAK2 phosphorylation pretreated with compound for 2 hrs followed by LPS-stimulation and measured after 30 mins by Western blot analysis; type: functional, cell-based; details: dose 0.2-5 µM, time 2.5 hrs, DDE = dose-dependent effect
RAW264.7 [16] = assay: Antiinflammatory activity in LPS-induced mouse RAW264.7 cells assessed as enhancement of STAT3 phosphorylation pretreated with compound for 2 hrs followed by LPS-stimulation and measured after 30 mins by Western blot analysis; type: functional, cell-based; details: dose 0.2-5 µM, time 2.5 hrs, DDE = dose-dependent effect
RAW264.7 [17] = assay: (§1) Antiinflammatory activity in LPS-stimulated mouse RAW264.7 cells assessed as inhibition of IkappaBalpha degradation at 0.2 to 5 uM pretreated with alpha7 nAChR antagonist, alpha-bungarotoxin for 1 hr followed by compound treatment for 2 hrs and further stimulated with LPS for 30 mins by Western blot analysis; type: functional, cell-based; details: dose 0.2-5 µM, time 2.5 hrs
RAW264.7 [18] = assay: as §1, with “NO production” for “IkappaBalpha degradation”, “antagonist” for “antagonist,”, “[…] reagent based assay” for “Western blot analysis”; type: functional, cell-based; details: dose 0.2-5 µM
Mus musculus [19] = assay: (§2) Antiinflammatory activity in LPS-induced ICR sepsis mouse model assessed as suppression of LPS-induced serum interleukin-1beta level at 5 to 20 mg/kg, ip pretreated with compound for 5 days followed by LPS stimulation and measured 2 hrs post last dose by ELISA analysis; type: functional, organism-based; details: dose 5-20 mg/kg, time 5.0 day
Mus musculus [20] = assay: Antiinflammatory activity in LPS-induced ICR sepsis mouse model assessed as high survival rate at 5 to 20 mg/kg, ip pretreated with compound for 5 days followed by LPS stimulation and measured 2 hrs post last dose; type: functional, organism-based; details: dose 5-20 mg/kg, time 5.0 day
Mus musculus [21] = assay: Antiinflammatory activity in LPS-induced ICR sepsis mouse model assessed as suppression of LPS-induced serum interleukin-6 level at 5 to 20 mg/kg, ip pretreated with compound for 5 days followed by LPS stimulation and measured 2 hrs post last dose by ELISA analysis; type: functional, organism-based; details: dose 5-20 mg/kg, time 5.0 day
Mus musculus [22] = assay: as §2, with “attenuation” for “suppression”, “inflammatory cell infiltration” for “serum interleukin-1beta level”, “hematoxylin and eosin staining based microscopic” for “ELISA”; type: functional, organism-based; details: dose 5-20 mg/kg, time 5.0 day
Mus musculus [23] = assay: (§3) Antiinflammatory activity in LPS-induced ICR sepsis mouse model assessed as attenuation of LPS-induced lung damage at 5 to 20 mg/kg, ip pretreated with compound for 5 days followed by LPS stimulation and measured 2 hrs post last dose by hematoxylin and eosin staining based microscopic analysis; type: functional, organism-based; details: dose 5-20 mg/kg, time 5.0 day
RAW264.7 [24] = assay: Antiinflammatory activity in mouse RAW264.7 cells assessed as inhibition of LPS-induced iNOS protein expression preincubated for 2 hrs followed by LPS stimulation for 24 hrs by qRT-PCR analysis; type: functional, cell-based; details: time 26.0 hrs, DDE = dose-dependent effect
RAW264.7 [25] = assay: as §1, with “LPS-induced” for “LPS-stimulated”, “enhancement” for “inhibition”, “JAK2 phosphorylation” for “IkappaBalpha degradation”, “antagonist” for “antagonist,”; type: functional, cell-based; details: dose 0.2-5 µM, time 2.5 hrs
RAW264.7 [26] = assay: as §1, with “LPS-induced” for “LPS-stimulated”, “enhancement” for “inhibition”, “STAT3 phosphorylation” for “IkappaBalpha degradation”, “antagonist” for “antagonist,”; type: functional, cell-based; details: dose 0.2-5 µM, time 2.5 hrs
Peritoneal macrophage = assay: Antiinflammatory activity in mouse peritoneal macrophages assessed as reduction in LPS-induced NO production at 0.2 to 5 uM preincubated for 2 hrs followed by LPS-stimulation for 22 hrs by Griess reagent based assay; type: functional, cell-based; details: dose 0.2-5 µM, time 24.0 hrs
THP-1 [27] = assay: Antiinflammatory activity in human THP-1 monocytes assessed as reduction in LPS/Interferon-gamma NO production at 0.2 to 5 uM pretreated with PMA for 24 hrs followed by compound addition 2 hrs and stimulated with LPS/Interferon-gamma for 22 hrs by Griess reagent based assay; type: functional, cell-based; details: dose 0.2-5 µM
THP-1 [28] = assay: Antiinflammatory activity in LPS/IFNgamma-stimulated human THP-1 monocytes assessed as inhibition of NO production pretreated with PMA for 24 hrs and incubated alpha-bungarotoxin for 1 hr followed by compound addition for 2 hrs and further stimulated with LPS/INF-gamma for 22 hrs by Griess reagent based assay; type: functional, cell-based
[29] = molecular target: Neuronal acetylcholine receptor subunit alpha-7 (Mus musculus) (UniProt P49582); assay: Binding affinity to alpha7 nAChR in mouse RAW264.7 cells assessed as increase in thermal stability at 200 uM incubated for 30 min by CETSA; type: cell-based; details: filed as agonist
Chain of Neuronal acetylcholine receptor subunit alpha-7 (Mus musculus) (P49582 whole entry): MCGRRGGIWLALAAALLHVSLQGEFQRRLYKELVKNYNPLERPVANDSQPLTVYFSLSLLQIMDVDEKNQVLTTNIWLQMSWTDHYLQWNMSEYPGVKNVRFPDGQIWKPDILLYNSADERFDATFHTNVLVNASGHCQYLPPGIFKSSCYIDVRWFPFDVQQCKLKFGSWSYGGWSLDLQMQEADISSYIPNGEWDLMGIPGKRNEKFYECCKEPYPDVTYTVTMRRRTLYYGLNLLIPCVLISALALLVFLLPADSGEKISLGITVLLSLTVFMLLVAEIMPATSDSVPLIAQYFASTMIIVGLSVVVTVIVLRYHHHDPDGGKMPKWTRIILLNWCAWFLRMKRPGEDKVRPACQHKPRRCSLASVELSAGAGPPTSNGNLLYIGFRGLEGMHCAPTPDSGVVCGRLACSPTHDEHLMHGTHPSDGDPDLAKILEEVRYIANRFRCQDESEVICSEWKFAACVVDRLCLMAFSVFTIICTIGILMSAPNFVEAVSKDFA

Mus musculus [30] = assay: as §3, with “inflammatory cell infiltration” for “lung damage”, “5” for “5 to 20”; type: functional, organism-based; details: time 5.0 day
Mus musculus [31] = assay: Antiinflammatory activity in LPS-induced ICR sepsis mouse model assessed as attenuation of LPS-induced lung damage at 5 mg/kg, ip pretreated with compound for 5 days followed by LPS stimulation and measured 2 hrs post last dose by hematoxylin and eosin staining based microscopic analysis; type: functional, organism-based; details: time 5.0 day

## Cc1ccc(S(=O)(=O)/C=C/C#N)cc1
RAW264.7 [1]
  Activity: Active
RAW264.7 [2]
  Activity: Active
RAW264.7 [3]
  Activity: Active

## CC(=O)Oc1ccc(CC[C@H](CCCCc2ccccc2)OC(C)=O)cc1OC(C)=O
RAW264.7 [4]
  inhibition at 5 µM: 93.2%
RAW264.7 [5]
  IC50: 320 nM
RAW264.7 [6]
  Activity: Non-Toxic
RAW264.7 [7]
  Activity: Dde
RAW264.7 [8]
  Activity: Dde
RAW264.7 [9]
  Activity: Active
RAW264.7 [10]
  Activity: Active
RAW264.7 [11]
  Activity: Dde
RAW264.7 [1]; DDE = dose-dependent effect
  Activity: Dde
RAW264.7 [12]
  Activity: Dde
RAW264.7 [13]
  Activity: Active
[14]
  inhibition: Dde
RAW264.7 [15]
  Activity: Dde
RAW264.7 [16]
  Activity: Dde
RAW264.7 [17]
  Activity: Active
RAW264.7 [18]
  Activity: Active
Mus musculus [19]
  Activity: Active
Mus musculus [20]
  Activity: Active
Mus musculus [21]
  Activity: Active
Mus musculus [22]
  Activity: Active
Mus musculus [23]
  Activity: Active
RAW264.7 [24]
  Activity: Dde
RAW264.7 [25]
  Activity: Active
RAW264.7 [26]
  Activity: Active

## COc1ccc(/C=C/C=C/C(=O)/C=C/c2ccc(OC)c(O)c2)c(OC)c1
RAW264.7 [4]
  inhibition at 5 µM: 106%
RAW264.7 [5]
  IC50: 550 nM
RAW264.7 [6]
  Activity: Non-Toxic
RAW264.7 [7]
  Activity: Dde
RAW264.7 [8]
  Activity: Dde
RAW264.7 [9]
  Activity: Active
RAW264.7 [10]
  Activity: Active
RAW264.7 [11]
  Activity: Dde
Peritoneal macrophage
  Activity: Active
THP-1 [27]
  Activity: Active
RAW264.7 [1]; DDE = dose-dependent effect
  Activity: Dde
RAW264.7 [12]
  Activity: Dde
RAW264.7 [13]
  Activity: Active
[14]
  inhibition: Dde
RAW264.7 [15]
  Activity: Dde
RAW264.7 [16]
  Activity: Dde
THP-1 [28]
  Activity: Active
[29]
  Activity: Active
RAW264.7 [24]
  Activity: Dde
RAW264.7 [25]
  Activity: Active
RAW264.7 [26]
  Activity: Active

## C[C@@H]1C[C@H]2[C@@H]3CCC4=CC(=O)C=C[C@]4(C)[C@@]3(F)[C@@H](O)C[C@]2(C)[C@@]1(O)C(=O)CO
Mus musculus [30]
  Activity: Active
Mus musculus [31]
  Activity: Active

From ChEMBL document CHEMBL5120875, “Discovery of diarylheptanoids that activate α7 nAchR-JAK2-STAT3 signaling in macrophages with anti-inflammatory activity in vitro and in vivo” (Bioorg Med Chem, 2022)
